In patent US20250049967A1, “PET TRACERS FOR V[…] GAMMA1 RECEPTORS” (Hoffmann-La Roche Inc., priority 2022, published 2025):

Columns and labels:
h-GABA-A α2β2γ1 receptor = h-GABA-A α2β2γ1 receptor (Homo sapiens (Human), UniProt P47869+Q8N1C3); assay: Xenopus oocyte two-electrode voltage clamp electrophysiology, modulation of GABA EC20 current; assay type: cell-based; settings: for Efficacy (GABA)%: % modulation of GABA EC20 = 100*(Fold increase−1), compound at 30-fold Ki α2β2γ1; for Potentiation of GABA-induced current in α2β2γ1 expressing oocytes: reference PAMs, GABA EC20
Method: Xenopus laevis oocytes at maturation stages V-VI were used for the expression of cloned mRNA encoding GABAA receptor subunits. Oocytes ready for RNA micro-injection were bought from Ecocyte, Castrop-Rauxel, Germany and stored in modified Barth's medium (composition in mM: NaCl 88, KCl 1, NaHCO3 2.4, HEPES 10, MgSO4 0.82, CaNO3 0.33, CaCl2 0.33, pH=7.5) at 20° C. until the experiment.
Oocytes were plated in 96-well plates for microinjection using the Roboinject automated instrument (MultiChannelSystems, Reutlingen, Germany). Approximately 50 nL of an aqueous solution containing the RNA transcripts for the subunits of the desired GABAA receptor subtype was injected into each oocyte. […] Oocytes were kept in modified Barth's medium (composition in mM: NaCl 88, KCl 1, NaHCO3 […], HEPES 10, MgSO4 0.82, CaNO3 0.33, CaCl2 0.33, pH=7.5) at 20° C. until the experiment.
Electrophysiological experiments were performed using the Roboocyte instrument (MultiChannelSystems, Reutlingen, Germany) on days 3 to 5 after the micro-injection of mRNA. During the experiment the oocytes were constantly superfused by a solution containing (in mM) NaCl 90, KCl 1, HEPES 5, MgCl2 1, CaCl2 1 (pH 7.4). Oocytes were impaled by two glass microelectrodes (resistance: 0.5-0.8 MΩ) which were filled with a solution containing KCl 1M+K-acetate 1.5 M and voltage-clamped to −80 mV. The recordings were performed at room temperature using the Roboocyte two-electrode voltage clamp system (Multichannelsystem). After an initial equilibration period of 1.5 min GABA was added for 1.5 min at a concentration evoking approximately 20% of a maximal current response (EC20). After another rest interval of 2.5 min GABA was again added evoking a response of similar amplitude and shape. […] Current traces were recorded at a digitization rate of 10 Hz during and shortly before and after the GABA application.
Each compound and concentration was tested on at least 3 oocytes. Different oocytes were used for different compound concentrations.
For the analysis, the digitized current traces of the first and second GABA response were superimposed and, if necessary, rescaled to equal maximal amplitudes. The ratio between the two responses during the time interval of test compound application was calculated point by point. The extremum of the resulting “ratio trace” was taken as the efficacy (“Fold increase”) of the compound expressed as “% modulation of GABA EC20” (100*(Fold increase−1)).

[1] = target: human GABAA α1β3γ2 receptor (Homo sapiens (Human), UniProt P14867+P18507); assay: Binding assay, competition for [^3H]Flumazenil, HEK293F cells; settings: for γ2/γ1 Selectivity Ratio: Ki α1β3γ2 (nM)/Ki α2β2γ1 (nM)
Method: The affinity of compounds at GABAA γ2 subunit-containing receptors was measured by competition for [^3H]Flumazenil (81.1 Ci/mmol; Roche) binding to HEK293F cells expressing human (transiently transfected) receptors of composition α1β3γ2.
Harvested pellets from HEK293F cells expressing the different GABAA γ2 receptor subtypes were resuspended in Mannitol Buffer pH 7.2-7.4 and processed as described above for the cells expressing the GABAA γ1 subunit-containing receptors.
Assays were incubated to equilibrium for 1 hour at 4° C. and harvested onto GF/C uni-filters (Packard) by filtration using a Packard harvester and washing with ice-cold wash buffer (50 mM Tris; pH 7.5). After anhydrousing, filter-retained radioactivity was detected by liquid scintillation counting. Ki values were calculated using Excel-Fit (Microsoft) and are the means of two determinations.

[2] = target: human GABAA α2β2γ1 receptor (Homo sapiens (Human), UniProt P47869+Q8N1C3); assay: Binding assay, competition for [^3H]RO7239181, membranes from HEK293F cells
Method: (§1) Harvested pellets from HEK293F cells expressing the different GABAA receptor subtypes were resuspended in Mannitol Buffer pH 7.2-7.4 (Mannitol 0.29M, Triethylamine 10 mM, Acetic acid 10 mM, EDTA 1 mM plus protease inhibitors (20 tablets Complete, Roche Diagnostics Cat. No. 05 056 489 001 per liter)), washed two times and then resuspended at 1:10 to 1:15 dilution in the same buffer. Cell disruption was performed by stirring the suspension in a Parr vessel #4637 at 435 psi for 15 minutes, and then the suspensions were centrifuged at 1000×g for 15 minutes at 4° C. (Beckman Avanti J-HC; rotor JS-4.2). The supernatant (S1) was transferred in a 2 l Schott flask and the pellet (P1) was resuspended with Mannitol Buffer up to 175 ml. The resuspended pellet was transferred into a 250 ml Corning centrifugal beaker and centrifuged at 1500×g for 10 minutes at 4° C. (Beckman Avanti J-HC; rotor JS-4.2). The supernatant (S1) was then transferred in the 2 l Schott flask and the pellet was discarded. […] The P2 and P3 protein concentration was determined with the BIORAD Standard assay method with bovine serum albumin as standard and measured on the NANO-Drop 1000. […]
(§2) Membrane homogenates were resuspended and polytronised (Polytron PT1200E Kinematica AG) in Potassium Phosphate 10 mM, KCl 100 mM binding buffer at pH 7.4 to a final assay concentration determined with a previous experiment. […]

[3] = target: human GABAA α1β2γ1 receptor (Homo sapiens (Human), UniProt P14867+Q8N1C3); assay: as above
Method: as §1, §2

GABAA γ1 receptor [4] = target: GABAA γ1 receptor (Mus musculus (Mouse), UniProt Q9R0Y8); assay: In vitro autoradiography, coronal brain sections of GABAA γ1 knockout and wild-type mice; assay type: binding; settings: 0.3 nM radioligand, 30 minutes room temperature, knockout vs wild-type mouse brain sections
Method: Autoradiographical analyses of [^3H]-(I) and [^3H]-(II) were performed with coronal brain sections from GABAA γ1 receptor knockout mice (C57BL/6NTac-Gabrg1) and wild-type controls. Tissue sections (10 μm) were cut in a cryostat, thaw-mounted on microscope glass slides and incubated in incubation buffer (50 mM Tris-HCl, pH 7.4) containing 0.3 nM radioligand (molar activity 83 Ci/mmol and 81 Ci/mmol for [^3H]-(II) and [^3H]-(I), respectively) at room temperature for 30 minutes. After incubation, all sections were rinsed three times in ice-cold wash buffer (50 mM Tris-HCl, pH 7.4) for 10 minutes and dipped three times in distilled water at 4° C. Slide-mounted brain sections were dried in a ventilated fridge for at least 2 hours and exposed to a Fuji Imaging Plate for 5 days. The imaging plate was scanned at a resolution of 25 μm in a Fujifilm high-resolution plate scanner. Visualization and quantification of autoradiographies was performed by the MCID™ image analysis program.

GABAA γ1 receptor [5] = assay: In vivo PET scans in baboons, regional time-activity curves; parameters: species or system papio anubis olive brown baboons; settings: baboon, intravenous bolus approx. 700 MBq, 90 min scan
Method: PET imaging experiments were performed in male papio anubis olive brown baboons to examine the characteristics of [^11C]-(I) and [^11C]-(II) in vivo. The final radiotracer product was radiochemically pure (>95%) up to 40 min post its end of synthesis with an average final calculated specific activity of >555 GBq/μmol. The PET camera used was the Siemens HRRT with an in-plane field-of-view (FOV) of 30 cm and an axial FOV of 24 cm. Each dynamic PET scan started with an intravenous bolus injection of the radiotracer (approx. 700 MBq) and continued for 90 min in a 3D list mode. A set of volumes of interest (VOIs) for 16 brain regions were defined on MRIs of individual animals referring to a standard VOI template. VOIs were transferred to PET space using the coregistration parameters to generate time-activity curves (TACs) of brain regions.

GABAA γ1 receptor (Mus musculus (Mouse), UniProt Q9R0Y8), sequence (Q9R0Y8 36-465 limits assumed): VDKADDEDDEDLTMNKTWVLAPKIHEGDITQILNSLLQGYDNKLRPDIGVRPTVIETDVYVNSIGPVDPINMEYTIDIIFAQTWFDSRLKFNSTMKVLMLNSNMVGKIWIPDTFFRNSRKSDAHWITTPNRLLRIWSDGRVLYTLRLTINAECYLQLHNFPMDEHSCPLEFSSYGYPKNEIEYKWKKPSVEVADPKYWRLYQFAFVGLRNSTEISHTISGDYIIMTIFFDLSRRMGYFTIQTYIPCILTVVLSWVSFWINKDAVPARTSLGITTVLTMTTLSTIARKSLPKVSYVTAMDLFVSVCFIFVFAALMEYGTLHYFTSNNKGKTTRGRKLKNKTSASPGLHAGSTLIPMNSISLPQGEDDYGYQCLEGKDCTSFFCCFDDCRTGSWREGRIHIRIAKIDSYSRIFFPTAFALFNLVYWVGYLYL

For CN1C(=O)CN=C(c2cc(O)ccc2F)c2c1ccc(Cl)c2Cl [Example 1, 6,7-dichloro-5-(2-fluoro-5-hydroxy-phenyl)-1-methyl-3H-1,4-benzodiazepin-2-one], the “Efficacy (GABA)%” value (h-GABA-A α2β2γ1 receptor) was 90% and the “γ2/γ1 Selectivity Ratio” value [1] was 12.7.
In the case of Cc1ccc2c(c1Cl)C(c1cc(O)ccc1F)=NCC(=O)N2C [Example 2, 6-chloro-5-(2-fluoro-5-hydroxy-phenyl)-1,7-dimethyl-3H-1,4-benzodiazepin-2-one], the “Efficacy (GABA)%” value (h-GABA-A α2β2γ1 receptor) is reported as 70% and the “γ2/γ1 Selectivity Ratio” value [1] is reported as 39.0.
CN1C(=O)CN=C(c2ccccc2F)c2cc([N+](=O)[O-])ccc21 [Flunitrazepam] was tested, and the “Potentiation of GABA-induced current in α2β2γ1 expressing oocytes” value (“Potentiation of GABA-induced current” for short) (h-GABA-A α2β2γ1 receptor) was about 60%.
In the case of Cc1ncc2n1-c1ccc(Cl)cc1C(c1ccccc1F)=NC2 [Midazolam], the “Potentiation of GABA-induced current” value (h-GABA-A α2β2γ1 receptor) is reported as about 60%.
CN1C(=O)CN=C(c2cc(O)ccc2Cl)c2cc(Cl)ccc21 [RE-A, reference compound] showed a Ki [2] of 2.79 nM, a Ki [3] of 6.84 nM and a Ki [1] of 1.5 nM. For the same compound, the “γ2/γ1 Selectivity Ratio” value [1] was 0.54.
Cc1nnc2n1-c1ccc(Cl)cc1C(c1ccccc1Cl)=NC2 [Triazolam] was tested, and the “Potentiation of GABA-induced current” value (h-GABA-A α2β2γ1 receptor) was about 60%.
[3H]C([3H])([3H])N1C(=O)CN=C(c2cc(O)ccc2F)c2c1ccc(Cl)c2Cl [[^3H]-(I), 6,7-Dichloro-5-(2-fluoro-5-hydroxy-phenyl)-1-([^3H3]methyl)-3H-1,4-benzodiazepin-2-one] was tested, and the “Specific binding in the amygdala” value (GABAA γ1 receptor [4]) was 65%.
With [3H]C([3H])([3H])N1C(=O)CN=C(c2cc(O)ccc2F)c2c1ccc(C)c2Cl [[^3H]-(II), 6-Chloro-5-(2-fluoro-5-hydroxy-phenyl)-7-methyl-1-([^3H3]methyl)-3H-1,4-benzodiazepin-2-one] the “Specific binding in the amygdala” value (GABAA γ1 receptor [4]) was 97%.
For [11CH3]N1C(=O)CN=C(c2cc(O)ccc2F)c2c1ccc(Cl)c2Cl [[^11C]-(I), [^11C]6,7-Dichloro-5-(2-fluoro-5-hydroxy-phenyl)-1-methyl-3H-1,4-benzodiazepin-2-one], the Brain clearance (GABAA γ1 receptor [5]) was “Slower clearance”.
For Cc1ccc2c(c1Cl)C(c1cc(O)ccc1F)=NCC(=O)N2[11CH3] [[^11C]-(II), [^11C]6-Chloro-5-(2-fluoro-5-hydroxy-phenyl)-1,7-dimethyl-3H-1,4-benzodiazepin-2-one], the “Time of brain uptake peaks” value (GABAA γ1 receptor [5]; comparison of tracers) was “earlier peaks than [^11C]-(I)”.
